Experimental data taken from US20250049924A1, “Abuse-Deterrent Pharmaceutical Composition with Aversion Properties” (AARDVARK THERAPEUTICS INC., priority 2022, published 2025).

Assays:
[1] = test system: bitter taste receptors in the oral cavity, including the tongue; assay: volunteer snorting experiment with DA in saline (granules or neat powder); assay type: in vivo, human
Protocol: One brave co-inventor attempted to “snort” a formulation of DA in either a granule form having talc as an excipient as DA is provided in clinical trials (Aardvark Therapeutics, Inc phase 1 and 2 studies for obesity) for oral administration in a capsule designed to prevent DA material from exposure to bitter taste receptors in the oral cavity, including the tongue. In a first round of “dose escalation” of a saline having DA in granules starting around […] of DA (wherein a granule weighs about 0.1 mg including the talc based excipients) in the volume of liquid snorted, it took a dose of around 0.1 mg DA (10 granules). The three attempts were 1 granule, 5 granules and lastly 10 granules. […] This sensation peaked around 15-20 min, and lasted about an hour. Was certainly annoying and not pleasant.
In view of the results with a granule formulation of DA, the day before filing this patent application, the co-inventor volunteer tried the snorting experiment again, but this time, using neat DA that was a powder dissolved in saline. Just one “snort” was attempted of 1 mg of DA in saline. It should be noted that the completed clinical trials of DA used a dose of 200 mg of DA taken orally in a capsule that dissolves in the stomach, avoiding mouth exposure. The report from our volunteer indicated: “Just snorted 1.0 mg of ARD-101 [DA] API [active pharmaceutical ingredient] . . . OMG.
So terrible. […] Like with the granules, there is no immediate aversive sensation. Maybe around minute 7-8 after snorting dose, the bitterness became apparent, with peak effect starting around minute 10-15. […] Drinking water almost makes it worse!
It's been over 30 min since the snorting and the bitterness has hardly diminished. If I ate breakfast, I might have vomited already.
A later text read: “It's been almost 6 hours and I still taste it. Bleh.”

[2] = systemic exposure of DA after oral administration (completed clinical trials and preclinical studies)
Source text: This is in contrast to a controlled substance, such as an amphetamine, which is known to provide a bolus dose to the brain to provider a “high” experience for the drug abuser. This allows a drug abuser, snorting the disclosed formulation to experience a bolus dose of the controlled substance for a “high” while simultaneously, or shortly thereafter, experience a disgusting, revolting, vomit-inducing, sickening (but not life-threatening) massively unpleasant experience from the aversive agent, such as DA.
DB is commercially available but has not been developed for pharmaceutical use. However, DA has been used as an active pharmaceutical agent as a bitter receptor agonist, not as an aversive, in formulations that avoid oral cavity exposure.

[3] = systemic (intravenous) administration of DA, NOAEL; assay type: in vivo; settings: systemic administration (i.e., intravenous administration)
rats = assay: animal toxicology studies, DA orally by gavage, behaviour; assay type: in vivo; settings: oral gavage by less skilled technicians
[4] = DA granules in saline, around 0.1 mg DA (10 granules)
[5] = neat DA powder dissolved in saline, 1 mg, one snort

CC(=O)[O-].CC[N+](CC)(CC(=O)Nc1c(C)cccc1C)Cc1ccccc1 [DA, Denatonium acetate]
dose of DA that it took for an effect in dose escalation ([1]; DA granules (talc excipient) in saline, snorted, attempts of 1, 5 and 10 granules): about 0.1 mg | duration of sensation [1, 4]: about an hour | nausea or vomiting [1, 4]: did not elicit nausea or vomiting | sensation after snorting [1, 4]: extremely bitter taste in the back of my throat and posterior portion of my tongue | time of peak of sensation [1, 4]: 15 to 20 min | time to noticing the bitter taste [1, 4]: ≤ 10 min | effect compared with the granules ([1]; neat DA 1 mg versus granules snorted before): significantly and measurably more disgusting | deterrence of snorting, volunteer's judgement ([1]; neat DA powder dissolved in saline, 1 mg): measurable deterrent to snorting | sensation after snorting [1, 5]: extreme bitterness in the back of the throat and the posterior tongue | start of peak effect [1, 5]: 10 to 15 min | time after snorting at which bitterness became apparent [1, 5]: 7 to 8 min | time after snorting at which it is still tasted [1, 5]: ~6 h | time since snorting at which bitterness has hardly diminished [1, 5]: over 30 min | part of the dose administered found systemically ([2]; oral administration): less than 1% | pharmacokinetics, distribution after oral exposure ([2]; oral exposure): substantially gut restricted | NOAEL (no adverse effect level) [3]: high | behavior of the animals on gavage (rats): highly aversive and desperate behavior
